The results in this text go back to US20260297129A1, “PEPTIDES AS SELECTIVE IL-23 RECEPTOR INHIBITORS” (SANOFI, priority 2023, published 2026).

The term solubility denotes the concentration that dissolves in the medium under given conditions. Broadly, the IC50 is the concentration that gives 50% inhibition.

Structures are written as SMILES. In brackets after ≈: the same amount, converted by molar mass. Like-named read-outs stand apart in the source and are kept apart here. Numbered stars: 1 amine (or outer) side, 2 acyl side, 3 side chain; on linkers, the order of the positions; unused ones are H or OH. Bridge positions count the residues as written; N and C are the ends. Square brackets hold non-standard residues; d marks the D form. Peptide text beside a SMILES is read from it. * marks the point of attachment. Lys(Me,(CH2)4NMe(CH2)5CO) = CN(CCCCCC(=O)[*:3])CCCCN(C)CCCC[C@H](N[*:1])C(=O)[*:2]; Lys(Me,(CH2)4NMe(CH2)4CO) = CN(CCCCC(=O)[*:3])CCCCN(C)CCCC[C@H](N[*:1])C(=O)[*:2]; Trp(7-Me) = Cc1cccc2c(C[C@H](N)C(=O)O)c[nH]c12; Trp(1-Me) = Cn1cc(C[C@H](N)C(=O)O)c2ccccc21; NH(2-(3-pyridyl)ethyl) = c1cncc(CCN*)c1; αMeLys(Me2) = CN(C)CCCC[C@](C)(N)C(=O)O; 2Nal = N[C@@H](Cc1ccc2ccccc2c1)C(=O)O; 3Pal = N[C@@H](Cc1cccnc1)C(=O)O; Thp = NC1(C(=O)O)CCOCC1; Me2NCH2CH2 = CN(C)CC*; Aib = CC(C)(N)C(=O)O; Sar = CNCC(=O)O

Data set [1] in a line: Solubility of peptide compounds in buffer formulations (Table 5). In kind it is physicochemical. The note with it: target 1 mg/ml. The procedure:
Prior to the solubility measurement of a peptide batch, its purity was determined through UHPLC/MS method A.
For solubility testing the target concentration was 1 mg pure compound/ml. Therefore, solutions from solid samples were prepared in a buffer system at a concentration of 1 mg/mL compound. The solid samples were obtained by drying down aliquots of a freshly prepared dimethyl sulfoxide stock solution using a THERMO SPEEDVAC vacuum centrifuge. The dry down time was 3 hours.
The following buffer systems were applied: • Solubility buffer system A) 50 mM HCl pH 1.2 • Solubility buffer system B) 50 mM phosphate buffer pH 6.5 • Solubility buffer system C) 50 mM phosphate buffer pH 7.4 • UHPLC-UV was performed using analytical method A after 2 hours of gentle agitation from the filtered (0.45 μm filter plates) solutions, which were obtained by 10 mins of centrifugation forced filtration at 1500 RCF (relative centrifugal acceleration).
The solubility was determined by the comparison of the UV peak area of 2 μL-injections of a buffered sample diluted 1:10 with a standard curve of a dimethyl sulfoxide reference sample of known concentration. The different extinction coefficients were taken into account for the calculation.

Data set [2] has as its system IL-23 induced STAT3 signaling (IL-23 receptor) in HEK-Blue IL-23 cells. The experiment in a line: Inhibition of IL-23 induced STAT3 signaling in HEK-Blue IL-23 cells, SEAP reporter (Table 9). The data set is classed as cell-based. Particulars: human IL23 0.25 ng/ml, overnight, read-out: Inhibition of IL-23 induced pSTAT3 (IC50 nM). An excerpt: HEK-Blue™ IL-23 cells (INVIVOGEN) are designed for the detection of bioactive human (hIL-23) and murine IL-23 (mIL-23) by monitoring the activation of the STAT3 pathway. Binding of IL-23 to its receptor on the surface of HEK-Blue™ IL-23 cells triggers a signaling cascade leading to the activation of STAT3 and the subsequent production of secreted embryonic alkaline phosphatase (SEAP). This can be readily assessed using QUANTI-Blue™ Solution, a SEAP detection reagent.
HEK-Blue™ IL-23 cells were cultured as described by INVIVOGEN.
On the first day of assay 10 μL of the HEK-BLUE IL23 cell suspension (final concentration: 10,000 cells/well) and 10 μl of serially diluted peptides solutions were dispensed into a 384-well assay plate. After pre-incubation of the reaction mixtures at 37° C./5% CO2/95% humidity for 60 minutes, 10 μl of the humanIL23 cytokine (final concentration: 0.25 ng/ml) was added to each well for the STAT3 signaling activation. The plate was incubated overnight at 37° C./5% CO2/95% humidity.
On the second day 20 μl per well of QUANTI-BLUE detection solution (prepared according to the manufacture instruction) was dispensed into a new 384-well plate and followed by the transfer of 5 μl supernatant of the overnight incubated cell/sample mixtures. After incubation of 45 min at room temperature signals were measured with PHERASTAR (BMG) at OD 620-655 nm.
Dose response data were fitted with XLfit.

Data set [3] can be described thus: Chemical stability (relative purity loss) of peptide compounds in buffer formulations (Table 6). The data set is classed as physicochemical. The note with it: 2° C. and 37° C. The method, then:
Purity of a peptide batch was determined through UHPLC/MS method A prior to chemical stability measurement.
For stability assessment, the target concentration was 0.5 mg pure compound/ml. Therefore, solutions from solid samples were prepared in a buffer system at a concentration of 0.5 mg/mL compound. The solid samples were obtained by drying down aliquots of a freshly prepared acetonitrile stock solution using a THERMO SPEEDVAC vacuum centrifuge. The dry down time was 3 hours.
The following buffer systems were applied: • Solubility buffer system A): 50 mM HCl pH 1.2+Acetonitrile (3:1). • Solubility buffer system B): 50 mM phosphate buffer pH 6.5+Acetonitrile (3:1). • Solubility buffer system C): 50 mM phosphate buffer pH 7.4+Acetonitrile (3:1). • Prepared solutions were stored for 24 hours at 2° C. and 37° C.
After this time course, the samples were centrifuged for 15 min at 2500 RCF to create a 1:5 dilution of the supernatant. Then 2 μl of the dilution were analyzed with UHPLC-UV applying method A.
The chemical stability was rated through the relative loss of purity calculated by the equation: […]

[4] abbreviates: Buffer pH 1.1 (head; method: 50 mM HCl pH 1.2), 2 h agitation, read-out: Solubility, Buffer pH 1.1.
[5] abbreviates: aqueous buffer, 50 mM phosphate buffer pH 6.5, 2 h agitation, read-out: Solubility, Buffer pH 6.5.
The mark [6] stands for this setting: aqueous buffer, 50 mM phosphate buffer pH 7.4, 2 h agitation, read-out: Solubility, Buffer pH 7.4.

As to `CN(C)CCCC[C@]1(C)NC(=O)[C@H](Cc2ccc3ccccc3c2)NC(=O)[C@H](Cc2ccc(OCCN(C)C)cc2)NC(=O)C2(CCOCC2)NC(=O)[C@H](CCC(N)=O)NC(=O)[C@H](Cc2cn(C)c3ccccc23)NC(=O)CCCCN(C)CCCCN(C)CCCC[C@@H](C(=O)N[C@@H](CO)C(=O)N[C@@H](Cc2cccnc2)C(=O)N(C)CC(N)=O)NC1=O` [compound 45] ([Trp(1-Me)]Q[Thp]Y(Me2NCH2CH2)[2Nal][αMeLys(Me2)][Lys(Me,(CH2)4NMe(CH2)4CO)]S[3Pal][Sar]-NH2; lactam N-7), the solubility at 2 h in data set [1] (setting [4]) was at least 1.06 mg/mL; in data set [1] (setting [5]), at least 1.03 mg/mL; in data set [1] (setting [6]), at least 1.03 mg/mL. Besides, the IC50 in data set [2] was determined as 7.83 nM.

As for `CN(C)CCOc1ccc(C[C@@H]2NC(=O)C3(CCOCC3)NC(=O)[C@H](CCC(N)=O)NC(=O)[C@H](Cc3cn(C)c4ccccc34)NC(=O)CCCCCN(C)CCCCN(C)CCCC[C@@H](C(=O)NCC(=O)NCCc3cccnc3)NC(=O)C(C)(C)NC(=O)[C@H](Cc3ccc4ccccc4c3)NC2=O)cc1` [compound 22] ([Trp(1-Me)]Q[Thp]Y(Me2NCH2CH2)[2Nal][Aib][Lys(Me,(CH2)4NMe(CH2)5CO)]G-{NH(2-(3-pyridyl)ethyl)}; lactam N-7), the solubility at 2 h is at least 1.02 mg/mL in data set [1] (setting [4]), at least 0.92 mg/mL in data set [1] (setting [5]) and 0.33 mg/mL (≈ 224 µM) in data set [1] (setting [6]). Moreover, the half-maximal inhibitory concentration (IC50) in data set [2] came out at 24.8 nM.

`CC(=O)NCCCC[C@@H]1NC(=O)[C@H](Cc2c[nH]c3c(C)cccc23)NC(=O)CCCCN(C)CCCCN(C)CCCC[C@@H](C(=O)N[C@@H](CO)C(=O)N[C@@H](Cc2cccnc2)C(=O)N(C)CC(N)=O)NC(=O)[C@](C)(CCCCN(C)C)NC(=O)[C@H](Cc2ccc3ccccc3c2)NC(=O)[C@H](Cc2ccc(OCCN(C)C)cc2)NC(=O)C2(CCOCC2)NC1=O` [compound 44] ([Trp(7-Me)]K(Ac)[Thp]Y(Me2NCH2CH2)[2Nal][αMeLys(Me2)][Lys(Me,(CH2)4NMe(CH2)4CO)]S[3Pal][Sar]-NH2; lactam N-7): the solubility at 2 h in data set [1] (setting [4]) is at least 1.36 mg/mL; in data set [1] (setting [5]) it was at least 1.13 mg/mL; in data set [1] (setting [6]), at least 1.12 mg/mL. Further, in data set [2], the half-inhibitory concentration (IC50) came out at 1.19 nM.

As for `CC(=O)NCCCC[C@@H]1NC(=O)[C@H](Cc2c[nH]c3c(C)cccc23)NC(=O)CCCCN(C)CCCCN(C)CCCC[C@@H](C(=O)NCC(=O)NCCc2cccnc2)NC(=O)C2(CCOCC2)NC(=O)[C@H](Cc2ccc3ccccc3c2)NC(=O)[C@H](Cc2ccc(OCCN(C)C)cc2)NC(=O)C2(CCOCC2)NC1=O` [compound 48] ([Trp(7-Me)]K(Ac)[Thp]Y(Me2NCH2CH2)[2Nal][Thp][Lys(Me,(CH2)4NMe(CH2)4CO)]G-{NH(2-(3-pyridyl)ethyl)}; lactam N-7), the solubility at 2 h is at least 0.98 mg/mL in data set [1] (setting [4]), 0.85 mg/mL (≈ 550 µM) in data set [1] (setting [5]) and 0.81 mg/mL (≈ 524 µM) in data set [1] (setting [6]). Also, the IC50 in data set [2] turned out to be 10.4 nM.

For the compound `CC(=O)NCCCC[C@@H]1NC(=O)[C@H](Cc2c[nH]c3c(C)cccc23)NC(=O)CCCCN(C)CCCCN(C)CCCC[C@@H](C(=O)N[C@@H](CO)C(=O)N[C@@H](Cc2cccnc2)C(=O)N(C)CC(N)=O)NC(=O)C(C)(C)NC(=O)[C@H](Cc2ccc3ccccc3c2)NC(=O)[C@H](Cc2ccc(OCCN(C)C)cc2)NC(=O)C2(CCOCC2)NC1=O` [compound 39] ([Trp(7-Me)]K(Ac)[Thp]Y(Me2NCH2CH2)[2Nal][Aib][Lys(Me,(CH2)4NMe(CH2)4CO)]S[3Pal][Sar]-NH2; lactam N-7), the solubility at 2 h in data set [1] (setting [4]) was at least 1 mg/mL; in data set [1] (setting [5]), at least 0.89 mg/mL; in data set [1] (setting [6]), 0.85 mg/mL (≈ 516 µM). For the same compound, the degraded at 24 h in data set [3] (50 mM phosphate buffer pH 6.5 + acetonitrile (3:1), read-out: Chemical stability (relative purity loss), Buffer pH 6.5) was determined as 0%; in data set [3] (50 mM phosphate buffer pH 7.4 + acetonitrile (3:1), read-out: Chemical stability (relative purity loss), Buffer pH 7.4), 0%; in data set [3] (50 mm hcl + acetonitrile, Buffer pH 1.1 (head; method: 50 mM HCl pH 1.2 + acetonitrile 3:1), read-out: Chemical stability (relative purity loss), Buffer pH 1.1) it was 3.7%. In data set [2], the half-inhibitory concentration (IC50) is 1.78 nM.

For the compound `CC(=O)NCCCC[C@@H]1NC(=O)[C@H](Cc2cn(C)c3ccccc23)NC(=O)CCCCCN(C)CCCCN(C)CCCC[C@@H](C(=O)NCC(=O)NCCc2cccnc2)NC(=O)C(C)(C)NC(=O)[C@H](Cc2ccc3ccccc3c2)NC(=O)[C@H](Cc2ccc(OCCN(C)C)cc2)NC(=O)C2(CCOCC2)NC1=O` [compound 23] ([Trp(1-Me)]K(Ac)[Thp]Y(Me2NCH2CH2)[2Nal][Aib][Lys(Me,(CH2)4NMe(CH2)5CO)]G-{NH(2-(3-pyridyl)ethyl)}; lactam N-7), the solubility at 2 h was at least 0.97 mg/mL in data set [1] (setting [4]), at least 0.89 mg/mL in data set [1] (setting [5]) and at least 0.88 mg/mL in data set [1] (setting [6]). Moreover, the IC50 in data set [2] amounted to 39.2 nM.
